Results published in patent US20180111893A1, “POLYCATIONIC AMPHIPHILES AND POLYMERS THEREOF AS ANTIMICROBIAL AGENTS AND METHODS USING SAME” (Temple University-Of The Commonwealth System of Higher …, priority 2015, published 2018).

Test system: CA-MRSA strain
Experiment: Reactivation assay (sub-MIC co-dosing)
Type: cell-based, Staphylococcus aureus
Conditions: sub-MIC concentrations of TET-14,0,0, varying concentrations of triscationic variant
Text: It was hypothesized that by using a reactivation assay (essentially the inverse of a potentiation assay), the role QacR plays in monoQAC resistance could be better understood. […] Other possible hypotheses include that QacR may be activated by our monoQACs but that QacA cannot efflux the trisQACs or that the resistance mechanism implicated for TET-14,0,0 may be orthogonal to the Qac system.

CCCCCCCCCCCCCC[N+](CC)(CC)c1ccc(N(c2ccc([N+](C)(CC)CC)cc2)c2ccc([N+](C)(CC)CC)cc2)cc1 [TET-14,1,1]
modification of MIC on co-dosing with sub-MIC TET-14,0,0: did not result in any significant modification
